Reference: the OligoGym collection
“And” between values parts separate entries of the source, which are not always exact repeats. Identical values can stand only once. After the bases stand the sugars from the 5' end (letter, count) and the backbone: PS all phosphorothioate, else s phosphorothioate and o phosphodiester by linkage. Methylation of C is not given here. e = 2'-O-(2-methoxyethyl) (MOE); k = constrained ethyl (cEt); d = 2'-deoxy (DNA)

Target: APOL1
Settings: ASO

Row | Sequence | target mRNA inhibition (A431, 2 µM) [%] | target mRNA inhibition (A431, 0.0625 µM) | target mRNA inhibition (A431, 0.25 µM) | target mRNA inhibition (A431, 1 µM) | also measured
1 | GAGTATTGTTTTTGTG (sugars kkkddddkekekdddd, PS) | 56 |  |  |  | 
2 | CGTCAATATATTCTTT (sugars kkddddkdkdkddddd, PS) | 91 |  |  |  | 
3 | TTCTCATGGTACAGGA (sugars k2 d4 e4 k2 d4, PS) | 80 |  |  |  | 
4 | TGTTATATTTGATCCT (sugars kkkddddkekekdddd, PS) | 59 |  |  |  | 
5 | GTAAGTATTGCCAGCT (sugars k2 d4 e3 k2 d5, PS) | 89 |  |  |  | 
6 | AGTATTGTTTTTGTGG (sugars k3 d4 k3 e1 d5, PS) | 89 |  |  |  | 
7 | ATCAGATGGGTACTTC (sugars kekddddeekkddddd, PS) | 91 |  |  |  | 
8 | TATTTCTTGATGTGGT (sugars k2 d4 e3 k2 d5, PS) | 99 | 78% | 94% | 98% | target mRNA inhibition (A431, 0.0156 µM): 37%
9 | CATTCAGAATTTCCAC (sugars kkddddkekekkdddd, PS) | 57 |  |  |  | 
10 | GTTCAAAAGCAGCATT (sugars kdddddkekekddddd, PS) | 79 |  |  |  | 
11 | GTTATATTTGATCCTC (sugars k3 d4 k3 e1 d5, PS) | 98 |  |  |  | 
12 | TGTTCTAACTCTTGGG (sugars kkkddddkekeddddd, PS) | 88 |  |  |  | 
13 | TGTTCTAACTCTTGGG (sugars k2 d4 e3 k2 d5, PS) | 97 | 61% | 84% | 93% | target mRNA inhibition (A431, 0.0156 µM): 24%
14 | CGCAATGCTGACTTGG (sugars kkddddkekekddddd, PS) | 83 |  |  |  | 
15 | GAAGATTGGCTCTGGC (sugars kkkddddkekekdddd, PS) | 16 |  |  |  | 
16 | AGCTTTAAACTCAGGT (sugars kkkddddkekekdddd, PS) | 64 |  |  |  | 
17 | GGCAGTTTTGTAAGTG (sugars kkddddekekeddddd, PS) | 75 |  |  |  | 
18 | GGAATTATGGAATTGC (sugars kkddddekekeddddd, PS) | 97 | 62% | 89% | 97% | target mRNA inhibition (A431, 0.0156 µM): 23%
19 | AGTATTGCCAGCTAAG (sugars kkddddekekeddddd, PS) | 78 |  |  |  | 
20 | CTTTAAACTCAGGTGA (sugars k2 d4 e4 k2 d4, PS) | 88 |  |  |  | 
21 | GAATGAGCAGGTCAGA (sugars k4 d9 k3, PS) |  | 41% | 75% | 91% | 
22 | GGGTTATGAAATTATT (sugars kkddddkekekddddd, PS) | 84 |  |  |  | 
23 | CTTTATACCAGTGTCT (sugars kkddddekekeddddd, PS) | 98 | 60% | 82% | 95% | target mRNA inhibition (A431, 0.0156 µM): 29%; target mRNA inhibition (A431, 0.04 µM): 50%
24 | GTTATGAAATTATTGG (sugars kekddddeekkddddd, PS) | 90 | 43% | 64% | 84% | target mRNA inhibition (A431, 0.0156 µM): 14%
25 | TTCTCATGGTACAGGA (sugars kkddddkdkdkddddd, PS) | 89 |  |  |  | 
26 | GTGAGTATTGTTTTTG (sugars k2 d4 e3 k2 d5, PS) | 92 |  |  |  | 

Row | Sequence | target mRNA inhibition (A431, 2 µM) [%] | target mRNA inhibition (A431, 0.0625 µM) | target mRNA inhibition (A431, 0.25 µM) | target mRNA inhibition (A431, 1 µM) | also measured
27 | TGTTATATTTGATCCT (sugars kkddddkekekddddd, PS) | 81 |  |  |  | 
28 | ACAGCATTGAGTACAA (sugars k4 d9 k3, PS) |  | 44% | 78% | 90% | 
29 | TCTATTAGAGGGCTAG (sugars kkkddddkekekdddd, PS) | 23 |  |  |  | 
30 | GTTATGAAATTATTGG (sugars kddddkekekeddddd, PS) | 77 |  |  |  | 
31 | TTATATTTGATCCTCA (sugars kkkddddkekekdddd, PS) | 92 |  |  |  | 
32 | TATTTCTTGATGTGGT (sugars kkddddkekekkdddd, PS) | 71 |  |  |  | 
33 | GTTTTTACAATAGTGC (sugars k4 d9 k3, PS) |  | 74% | 91% | 96% | 
34 | CTATTAGAGGGCTAGT (sugars kdddddkekekddddd, PS) | 28 |  |  |  | 
35 | CTAATTTTCTGACTGT (sugars k2 d4 e4 k2 d4, PS) | 88 |  |  |  | 
36 | TATTGGTTCAAAAGCA (sugars k4 d9 k3, PS) |  | 29% | 67% | 86% | 
37 | TTGTAAGTGCAACCAA (sugars kkddddkdkdkddddd, PS) | 74 |  |  |  | 
38 | AATGAACGCAATGCTG (sugars k4 d9 k3, PS) |  | 35% | 50% | 75% | 
39 | AAGTATTGCCAGCTAA (sugars k3 d4 k3 e1 d5, PS) | 49 |  |  |  | 
40 | GAGTATTGTTTTTGTG (sugars kkdddddkekeddddd, PS) | 96 | 75% | 91% | 96% | target mRNA inhibition (A431, 0.0156 µM): 33%
41 | TTCTATTAGAGGGCTA (sugars kkkddddkekeddddd, PS) | 91 |  |  |  | 
42 | GTATTTCTTGATGTGG (sugars kdddddkekekddddd, PS) | 92 |  |  |  | 
43 | ATCAGATGGGTACTTC (sugars kkkddddkdkdkdddd, PS) | 79 |  |  |  | 
44 | TGAAACATTCCTGGAC (sugars k4 d9 k3, PS) |  | 28% and 8% | 55% and 32% | 80% and 65% | 
45 | CATTCAGAATTTCCAC (sugars kkddddekekeddddd, PS) | 87 |  |  |  | 
46 | TATCAGATGGGTACTT (sugars k2 d4 e3 k2 d5, PS) | 70 |  |  |  | 
47 | ATTCTATTAGAGGGCT (sugars k3 d5 k3 d5, PS) | 95 |  |  |  | 
48 | GTTATATTTGATCCTC (sugars kkddddekekeddddd, PS) | 96 | 37% | 69% | 64% | target mRNA inhibition (A431, 0.0156 µM): 8%
49 | AAGATTGGCTCTGGCT (sugars kkkddddkekekdddd, PS) | 23 |  |  |  | 
50 | CATTCAGAATTTCCAC (sugars k2 d4 e3 k2 d5, PS) | 78 |  |  |  | 
51 | GTTATATTTGATCCTC (sugars kkdddddkekeddddd, PS) | 97 |  |  |  | 
52 | CATTTGGAGATCTGGC (sugars k4 d9 k3, PS) |  | 57% | 74% | 92% | 

Row | Sequence | target mRNA inhibition (A431, 2 µM) [%] | target mRNA inhibition (A431, 0.0625 µM) | target mRNA inhibition (A431, 0.25 µM) | target mRNA inhibition (A431, 1 µM) | also measured
53 | CAAGTCAGTACAGAGC (sugars k4 d9 k3, PS) |  | 57% | 82% | 94% | 
54 | GGCAGTTTTGTAAGTG (sugars kkddddkekekddddd, PS) | 65 |  |  |  | 
55 | TTATATTTGATCCTCA (sugars kdddddkekekddddd, PS) | 82 |  |  |  | 
56 | GAAGATTGGCTCTGGC (sugars kkddddkekekddddd, PS) | 48 |  |  |  | 
57 | CGTGTTATATTTGATC (sugars kkkddddkekekdddd, PS) | 82 |  |  |  | 
58 | GGAATTATGGAATTGC (sugars k3 d4 k3 e1 d5, PS) | 65 |  |  |  | 
59 | AAGATTGGCTCTGGCT (sugars kkdddddkekeddddd, PS) | 65 |  |  |  | 
60 | CAGTTTTGTAAGTGCA (sugars kekddddeekkddddd, PS) | 96 | 73% | 92% | 96% | target mRNA inhibition (A431, 0.0156 µM): 39%
61 | GTGTATTTCTTGATGT (sugars kkkddddkekekdddd, PS) | 84 |  |  |  | 
62 | CGCAATGCTGACTTGG (sugars k3 d4 k3 e1 d5, PS) | 94 | 61% | 83% | 92% | target mRNA inhibition (A431, 0.0156 µM): 34%; target mRNA inhibition (A431, 0.04 µM): 50%
63 | GTGTATTTCTTGATGT (sugars kkddddkekekddddd, PS) | 95 |  |  |  | 
64 | GTGAGTATTGTTTTTG (sugars kkkddddkekekdddd, PS) | 85 |  |  |  | 
65 | CACTTTATACCAGTGT (sugars kkkddddkekekdddd, PS) | 11 |  |  |  | 
66 | CGTCAATATATTCTTT (sugars kkkddddkekeddddd, PS) | 94 | 72% | 90% | 96% and 95% | target mRNA inhibition (A431, 0.0156 µM): 35%; target mRNA inhibition (A431, 0.04 µM): 53% and 50%
67 | ATTCTATTAGAGGGCT (sugars kkkddddkekekdddd, PS) | 37 |  |  |  | 
68 | ATGAACGCAATGCTGA (sugars k4 d9 k3, PS) |  | 52% | 76% | 92% | 
69 | GAACATTGAAACACCA (sugars k4 d9 k3, PS) |  | 39% | 70% | 89% | 
70 | GGTTCAAAAGCAGCAT (sugars k2 d4 e3 k2 d5, PS) | 95 | 60% | 86% | 94% | target mRNA inhibition (A431, 0.0156 µM): 21%
71 | CTTTAAACTCAGGTGA (sugars kkkddddkekekdddd, PS) | 40 |  |  |  | 
72 | TTCTTGATGTGGTGGG (sugars k4 d9 k3, PS) |  | 58% | 82% | 91% | 
73 | TTATATTTGATCCTCA (sugars kkdddddkekeddddd, PS) | 96 | 38% | 74% | 92% | target mRNA inhibition (A431, 0.0156 µM): 7%
74 | GCTTTAAACTCAGGTG (sugars kkkddddkdkdkdddd, PS) | 93 | 54% | 81% | 93% | target mRNA inhibition (A431, 0.0156 µM): 18%
75 | TACCGGGTAAGAGCGA (sugars k4 d9 k3, PS) |  | 32% | 64% | 78% | 
76 | TTATGAAATTATTGGT (sugars kkkddddkekekdddd, PS) | 86 |  |  |  | 
77 | TCTATTAGAGGGCTAG (sugars k2 d4 e4 k2 d4, PS) | 44 |  |  |  | 
